Key:
skin barrier formation = experiment: Eigengene analysis, skin barrier formation, treated cultured human keratinocytes; type: cell-based
[1] = tested on: "Clear and Detox" module genes; experiment: Eigengene of "Clear and Detox" co-expression module (FIG. 8); details: cultured human keratinocytes
[2] = tested on: "Repair and Rebuild" associated genes; experiment: Eigengene of "Repair and Rebuild" co-expression module (FIG. 9); details: cultured human keratinocytes

Substance | successful aging effect in skin barrier formation (skin barrier formation) | effect on "Clear and Detox" eigengene (FIG. 8) [1] | effect on "Repair and Rebuild" eigengene (FIG. 9) [2]
palmitoyl-lysine-threonine [Pal-KT] | Effects relating to successful aging were also identified | significantly up-regulates | 
palmitoyl-lysine-threonine-threonine-lysine-serine [Pal-KTTKS] |  |  | significantly up-regulate

Reference: US20160074301A1, “ANTI-AGING SKIN CARE COMPOSITIONS AND REGIMENS” (The Procter & Gamble Company, priority 2014, published 2016)
